Target: Agl1 (Bifidobacterium breve, UniProt C0JP82)
Test: Product inhibition of pNPG hydrolysis
Conditions: 2 mM pNPG

## OC[C@H]1O[C@H](O[C@H]2[C@H](O)[C@@H](O)C(O)O[C@@H]2CO)[C@H](O)[C@@H](O)[C@@H]1O (mixture of isomers) [maltose]
  IC50 (product inhibition): 100 mg/mL
